Measured values from patent US20260139004A1, “PEPTIDE HAVING ACTIVITIES OF PROMOTING HAIR GROWTH AND INHIBITING HAIR LOSS, AND USES THEREOF” (CAREGEN CO., LTD., priority 2022, published 2026).

Assays:
beta-catenin = assay: Western blot of nuclear beta-catenin in HHFDPCs; type: cell-based, human; conditions: peptide at 500 nM, 5 μM and 50 μM, 24 hours, nuclear protein Western blot, FIG. 3
Procedure: The effect of the peptide prepared in Preparation Example 1 above on the activation of beta-catenin in human hair follicle dermal papilla cells (HHFDPCs) was confirmed by Western blot method.
HHFDPCs were seeded in a 6-well cell culture plate at a density of 4×10^5 cells/well and cultured for 24 hours under mesenchymal stem cell complete media conditions. Then, the medium was replaced with serum-free mesenchymal stem cell medium and cultured for additional 24 hours. The cultured cell culture was treated with the peptide prepared in Preparation Example 1 above at 500 nM, 5 μM, and 50 μM, respectively, and treated with 10 ng/mL of rhWnt-3a (recombinant human Wnt-3a protein, R&D systems (MN, USA) to serve as a positive control, and not treated with anything to serve as a negative control (con). The cultures treated with these materials were incubated at 37° C. for additional 24 hours. After washing each culture with PBS, nuclear proteins were isolated using a nuclear protein extraction kit (Thermo scientific, USA), and an equal amount of protein sample was prepared by BCA quantification. The prepared protein samples were subjected to electrophoresis using 10% SDS-PAGE. […] The resultant was washed 3 times for 15 minutes each with 0.1% PBS-T (0.1% Tween-20 in PBS), treated with ECL solution (GE Healthcare, USA), and detected with a film.

[1] = system: human hair follicle dermal papilla cells (HHFDPCs); assay: Proliferation of human hair follicle dermal papilla cells (MTT); type: cell-based; conditions: peptide at 500 nM, 5 μM and 50 μM, 72 hours, absorbance 540 nm, FIG. 1
Procedure: The effect of the peptide prepared in Preparation Example 1 above on the proliferation of human hair follicle dermal papilla cells (HHFDPCs) was tested.
HHFDPCs were seeded in a 96-well cell culture plate at a density of 4×10^3 cells/well and cultured for 24 hours under mesenchymal stem cell complete media conditions. Then, the medium was replaced with serum-free mesenchymal stem cell medium and cultured for additional 24 hours. The cultured cell culture was treated with the peptide prepared in Preparation Example 1 above at 500 nM, 5 μM, and 50 μM, respectively, treated with 1 μM VEGF to serve as a positive control, and not treated with anything to serve as a negative control (con), and these cultures were cultured at 37° C. for additional 72 hours. Thereafter, 10 μL of MTT solution (5 mg/mL) was added thereto, and the mixture was incubated in a CO2 incubator at 37° C. for 4 hours, the medium was removed, and 100 μL of DMSO was added thereto and shaken for 10 minutes. Finally, the absorbance was measured at a wavelength of 540 nm using a spectrophotometer (Molecular Devices (SpectraMax iD3, CA, USA)).

Keratin 5 = assay: RT-PCR of Keratin 5 gene expression in HHORSCs; type: cell-based, human; conditions: peptide at 500 nM, 5 μM and 50 μM, 24 hours, FIG. 6
Procedure: (§1) The effect of the peptide prepared in Preparation Example 1 above on the activation of human hair outer root sheath cells (HHORSCs) was confirmed by measuring the expression of cytokeratin proteins.
(§2) HHORSCs were seeded in a 96-well cell culture plate at a density of 4×10^3 cells/well and cultured for 24 hours under mesenchymal stem cell complete media conditions. Then, the medium was replaced with serum free mesenchymal stem cell medium and cultured for additional 24 hours. The cultured cell culture was treated with 500 nM, 5 μM, and 50 μM of the peptide prepared in Preparation Example 1 above, respectively, and treated with 100 nM of epidermal growth factor (EGF) as a positive control, and negative when not treated with anything to serve as a negative control (con), and these cultures were cultured at 37° C. for 24 hours. After washing each culture with PBS, RNA was isolated by treatment with 300 μL of eaay blue (Intron, South Korea). The isolated RNA was quantified using Nano drop, and then subjected to cDNA synthesis using a cDNA synthesis kit (Enzynomics, South Korea). Then, a PCR reaction was performed using the primers shown in Table 3 below and a PCR premix (Enzynomics, South Korea). The PCR reaction product was electrophoresed on a 1.5% agarose gel, and the bands were detected using the Bio-Rad Gel Image System.

[2] = system: extracellular-regulated kinase (ERK); assay: Western blot of phospho-ERK in HHFDPCs; type: cell-based, human; conditions: peptide at 500 nM, 5 μM and 50 μM, 24 hours, FIG. 2
Procedure: (§3) The effect of the peptide prepared in Preparation Example 1 above on the activation of proliferation-related signaling molecules in human hair follicle dermal papilla cells (HHFDPCs) was confirmed by Western blot method.
(§4) HHFDPCs were seeded in a 6-well cell culture plate at a density of 4×10^5 cells/well and cultured for 24 hours under mesenchymal stem cell complete media conditions. Then, the medium was replaced with serum-free mesenchymal stem cell medium and cultured for additional 24 hours. The cultured cell culture was treated with the peptide prepared in Preparation Example 1 above at 500 nM, 5 μM, and 50 μM, respectively, 1 μM of Minoxidil (MNX) and 1 μM of VEGF were treated to serve as a positive control, and not treated with anything to serve as a negative control (con), and the cultures treated with these materials were cultured at 37° C. for additional 24 hours. After washing each culture with PBS, the cells were lysed by treatment with lysis buffer to obtain a cell lysate. Equal amounts of protein samples were prepared by BCA quantification of cell lysates. The prepared protein samples were subjected to electrophoresis using 10% SDS-PAGE. […] The resultant was washed 3 times for 15 minutes each with 0.1% PBS-T (0.1% Tween-20 in PBS), treated with ECL solution (GE Healthcare, USA), and detected with a film.

Keratin 19 = assay: RT-PCR of Keratin 19 gene expression in HHORSCs; type: cell-based, human; conditions: peptide at 500 nM, 5 μM and 50 μM, 24 hours, FIG. 6
Procedure: as §1, §2

Ha3-II = assay: RT-PCR of Ha3-II gene expression in HHORSCs; type: cell-based, human; conditions: peptide at 500 nM, 5 μM and 50 μM, 24 hours, FIG. 6
Procedure: as §1, §2

LEF-1 = assay: RT-PCR of LEF-1 gene expression in HHFDPCs; type: cell-based, human; conditions: peptide at 500 nM, 5 μM and 50 μM, 24 hours, FIG. 4
Procedure: (§5) The effect of the peptide prepared in Preparation Example 1 above on the expression levels of lymphoid enhancer-binding factor 1 (LEF-1) and c-Myc, which are downstream genes of beta-catenin, in human hair follicle dermal papilla cells (HHFDPCs) was determined by the RT-PCR method.
(§6) HHFDPCs were seeded in a 6-well cell culture plate at a density of 4×10^5 cells/well and cultured for 24 hours under mesenchymal stem cell complete media conditions. Then, the medium was replaced with serum free mesenchymal stem cell medium and cultured for additional 24 hours. The cultured cell culture was treated with the peptide prepared in Preparation Example 1 above at 500 nM, 5 μM, and 50 μM, respectively, and treated with 10 ng/mL of rhWnt-3a (recombinant human Wnt-3a protein, R&D systems (MN, USA) to serve as a positive control, and not treated with anything to serve as a negative control (con), and each was cultured at 37° C. for additional 24 hours. After washing each culture with PBS, RNA was isolated therefrom by treatment with 300 μL of eaay blue (Intron, South Korea). The isolated RNA was quantified using Nano drop, and then subjected to cDNA synthesis using a cDNA synthesis kit (Enzynomics, South Korea). […] The PCR reaction product was electrophoresed on a 1.5% agarose gel, and the bands were detected using the Bio-Rad Gel Image System.

Keratin 14 = assay: RT-PCR of Keratin 14 gene expression in HHORSCs; type: cell-based, human; conditions: peptide at 500 nM, 5 μM and 50 μM, 24 hours, FIG. 6
Procedure: as §1, §2

Akt = assay: Western blot of phospho-AKT in HHFDPCs; type: cell-based, human; conditions: peptide at 500 nM, 5 μM and 50 μM, 24 hours, FIG. 2
Procedure: as §3, §4

c-Myc = assay: RT-PCR of c-Myc gene expression in HHFDPCs; type: cell-based, human; conditions: peptide at 500 nM, 5 μM and 50 μM, 24 hours, FIG. 4
Procedure: as §5, §6

DKK-1 = assay: Western blot of DHT-induced DKK-1 in HHFDPCs; type: cell-based, human; conditions: peptide at 500 nM, 5 μM and 50 μM with 100 nM DHT, 24 hours, FIG. 5
Description: It is known that in hair follicles, dihydrotestosterone (DHT) promotes the expression of Dickkopf-1 (DKK-1), and DKK-1 induced by DHT inhibits the proliferation of keratinocytes in hair follicles and causes their apoptosis, thereby promoting hair loss (J of Invest Dermatolo. 2008, February, 128(2), pp. 262-269.). The effect of the peptide prepared in Preparation Example 1 above on the expression level of the hair loss-inducing protein DKK-1 in human hair follicle dermal papilla cells (HHFDPCs) was confirmed by Western blot method.
HHFDPCs were seeded in a 6-well cell culture plate at a density of 4×10^5 cells/well and cultured for 24 hours under mesenchymal stem cell complete media conditions. Then, the medium was replaced with serum-free mesenchymal stem cell medium and cultured for additional 24 hours. The cultured cell culture was treated with 500 nM, 5 μM, and 50 μM of the peptide prepared in Preparation Example 1 above, respectively. treated with 5 μM of finasteride to serve as a positive control, and not treated with anything to serve as a negative control group (con). […] Equal amounts of protein samples were prepared by BCA quantification of cell lysates. […] The resultant was washed 3 times for 15 minutes each with 0.1% PBS-T (0.1% Tween-20 in PBS), treated with ECL solution (GE Healthcare, USA), and detected with a film.

For “LKRYKHLV (Leu-Lys-Arg-Tyr-Lys-His-Leu-Val) [peptide of Preparation Example 1]”, the “beta-catenin activation and movement to the nucleus” value (beta-catenin) was “increased”, the “proliferation of HHFDPC compared to the negative control (con)” value [1] was “promoted” and the “gene expression of Keratin 5” value (Keratin 5) was “increasing”. For the same sequence, the “phosphorylation of extracellular-regulated kinase (ERK)” value [2] was “increased”, the “gene expression of Keratin 19” value (Keratin 19) was “increasing” and the “gene expression of Ha3-II” value (Ha3-II) was “increasing”. For the same sequence, the “gene expression of LEF-1” value (LEF-1) was “increased”, the “gene expression of Keratin 14” value (Keratin 14) was “increasing” and the “phosphorylation of Akt” value (Akt) was “increased”. The “gene expression of c-Myc” value (c-Myc) was “increased” and the “expression of DKK-1 induced by DHT treatment” value (DKK-1) was “reduced in a concentration-dependent manner”.
